Experimental data taken from patent US20060223996A1, “IL-12 modulatory compounds” (Synta Pharmaceuticals Corp., priority 2004, published 2006).

test system: IL-12; test: Human in vitro assay: inhibition of IL-12 production in IFNγ/LPS- or IFNγ/SAC-stimulated human PBMC or THP-1 cells (ELISA); type: cell-based; settings: read-out: IC50 Range (representative in vitro IC50 data)
Summary of the method: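 Sandwich ELISA for IL-12 (p70, p40) on supernatants collected 18 h after stimulation gave IC50 values; MTS monitored viability. THP-1 cells: IFNγ 100 U/mL priming 22 h, SAC 0.025%. PBMC: IFNγ 30 U/mL for 22 h plus LPS 1 μg/mL, or IFNγ 100 U/mL plus SAC 0.01%. Final DMSO 0.25%.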

| Structure (SMILES) | IC50 |
| --- | --- |
| COCCN(C)c1cc(C(=O)Nc2ccc3c(c2)CCN3C(C)=O)nc(N2CCOCC2)n1 [Compound 206, N-(1-acetylindolin-5-yl)-6-((2-methoxyethyl)(methyl)amino)-2-morpholinopyrimidine-4-carboxamide] | ≥ 1000 nM |
| COCCN(C)c1cc(C(=O)Nc2cccc(-c3nc(C)no3)c2)nc(N2CCOCC2)n1 [Compound 207, 6-((2-methoxyethyl)(methyl)amino)-N-(3-(3-methyl-1,2,4-oxadiazol-5-yl)phenyl)-2-morpholinopyrimidine-4-carboxamide] | ≥ 1000 nM |
| COCCN(C)c1cc(C(=O)Nc2cccc(-c3nncn3C)c2)nc(N2CCOCC2)n1 [Compound 208, 6-((2-methoxyethyl)(methyl)amino)-N-(3-(4-methyl-4H-1,2,4-triazol-3-yl)phenyl)-2-morpholinopyrimidine-4-carboxamide] | ≥ 1000 nM |
| COCCN(C)c1cc(C(=O)Nc2cccc(C(F)(F)F)c2)nc(N2CCOCC2)n1 [Compound 209, 6-((2-methoxyethyl)(methyl)amino)-2-morpholino-N-(3-(trifluoromethyl)phenyl)pyrimidine-4-carboxamide] | ≥ 1000 nM |
| COCCN(C)c1cc(C(=O)Nc2ccc3c(c2)OCO3)nc(N2CCOCC2)n1 [Compound 210, N-(benzo[d][1,3]dioxol-5-yl)-6-((2-methoxyethyl)(methyl)amino)-2-morpholinopyrimidine-4-carboxamide] | ≥ 1000 nM |
| COCCN(C)c1cc(C(=O)Nc2ccc3c(c2)N(C)CC3)nc(N2CCOCC2)n1 [Compound 211, 6-((2-methoxyethyl)(methyl)amino)-N-(1-methylindolin-6-yl)-2-morpholinopyrimidine-4-carboxamide] | < 1000 nM |
| COCCN(C)c1cc(C(=O)Nc2cc(N(C)C)ccc2F)nc(N2CCOCC2)n1 [Compound 212, N-(5-(dimethylamino)-2-fluorophenyl)-6-((2-methoxyethyl)(methyl)amino)-2-morpholinopyrimidine-4-carboxamide] | ≥ 1000 nM |
| CC(C)c1cccc(NC(=O)c2cc(OCCN3CCOCC3)nc(N3CCOCC3)n2)c1 [Compound 213, N-(3-isopropylphenyl)-2-morpholino-6-(2-morpholinoethoxy)pyrimidine-4-carboxamide] | ≥ 1000 nM |
| CN1CCc2ccc(NC(=O)c3cc(OCCN4CCOCC4)nc(N4CCOCC4)n3)cc21 [Compound 214, N-(1-methylindolin-6-yl)-2-morpholino-6-(2-morpholinoethoxy)pyrimidine-4-carboxamide] | < 1000 nM |
| COCCN(C)c1cc(C(=O)Nc2ccc(F)c(N(C)C)c2)nc(N2CCOCC2)n1 [Compound 215, N-(3-(dimethylamino)-4-fluorophenyl)-6-((2-methoxyethyl)(methyl)amino)-2-morpholinopyrimidine-4-carboxamide] | < 1000 nM |
| Cn1ncc2ccc(NC(=O)c3cc(OCCN4CCOCC4)nc(N4CCOCC4)n3)cc21 [Compound 216, N-(1-methyl-1H-indazol-6-yl)-2-morpholino-6-(2-morpholinoethoxy)pyrimidine-4-carboxamide] | ≥ 1000 nM |
| COCCN(C)c1cc(C(=O)Nc2ccc3cnn(C)c3c2)nc(N2CCOCC2)n1 [Compound 217, 6-((2-methoxyethyl)(methyl)amino)-N-(1-methyl-1H-indazol-6-yl)-2-morpholinopyrimidine-4-carboxamide] | ≥ 1000 nM |
| Cn1c(=O)oc2ccc(NC(=O)c3cc(OCCN4CCOCC4)nc(N4CCOCC4)n3)cc21 [Compound 218, N-(3-methyl-2-oxo-2,3-dihydrobenzo[d]oxazol-5-yl)-2-morpholino-6-(2-morpholinoethoxy)pyrimidine-4-carboxamide] | < 1000 nM |
| CN1C(=O)C(C)(C)c2cc(NC(=O)c3cc(OCCN4CCOCC4)nc(N4CCOCC4)n3)ccc21 [Compound 219, 2-morpholino-6-(2-morpholinoethoxy)-N-(1,3,3-trimethyl-2-oxoindolin-5-yl)pyrimidine-4-carboxamide] | < 1000 nM |

More lines, now with the values ahead:

| IC50 | Structure (SMILES) |
| --- | --- |
| < 1000 nM | CCn1ccc2ccc(NC(=O)c3cc(OCCN4CCOCC4)nc(N4CCOCC4)n3)cc21 [Compound 220, N-(1-ethyl-1H-indol-6-yl)-2-morpholino-6-(2-morpholinoethoxy)pyrimidine-4-carboxamide] |
| < 1000 nM | CCN1CCc2ccc(NC(=O)c3cc(OCCN4CCOCC4)nc(N4CCOCC4)n3)cc21 [Compound 221, N-(1-ethylindolin-6-yl)-2-morpholino-6-(2-morpholinoethoxy)pyrimidine-4-carboxamide] |
| < 1000 nM | CCc1c(C)[nH]c2ccc(NC(=O)c3cc(OCCN4CCOC4=O)nc(N4CCOCC4)n3)cc12 [Compound 222, 2-Morpholin-4-yl-6-[2-(2-oxo-oxazolidin-3-yl)-ethoxy]-pyrimidine-4-carboxylic acid (3-ethyl-2-methyl-1H-indol-5-yl)-amide] |
| < 1000 nM | O=C(Nc1ccc2[nH]c3c(c2c1)CCCC3)c1cc(OCCN2CCOC2=O)nc(N2CCOCC2)n1 [Compound 223, 2-Morpholin-4-yl-6-[2-(2-oxo-oxazolidin-3-yl)-ethoxy]-pyrimidine-4-carboxylic acid (6,7,8,9-tetrahydro-5H-carbazol-3-yl)-amide] |
| ≥ 1000 nM | COCCN(C)c1cc(C(=O)Nc2cc(C(C)(C)C)ccc2O)nc(N2CCOCC2)n1 [Compound 225, 6-[(2-Methoxy-ethyl)-methyl-amino]-2-morpholin-4-yl-pyrimidine-4-carboxylic acid (5-tert-butyl-2-hydroxy-phenyl)-amide] |
| ≥ 1000 nM | COCCN(C)c1cc(C(=O)Nc2cccc(C#CC(C)(C)O)c2)nc(N2CCOCC2)n1 [Compound 226, 6-[(2-Methoxy-ethyl)-methyl-amino]-2-morpholin-4-yl-pyrimidine-4-carboxylic acid [3-(3-hydroxy-3-methyl-but-1-ynyl)-phenyl]-amide] |
| ≥ 1000 nM | COCCN(C)c1cc(C(=O)Nc2cc(-c3ccc(Cl)cc3)nn2C)nc(N2CCOCC2)n1 [Compound 227, 6-[(2-Methoxy-ethyl)-methyl-amino]-2-morpholin-4-yl-pyrimidine-4-carboxylic acid [5-(4-chloro-phenyl)-2-methyl-2H-pyrazol-3-yl]-amide] |
| ≥ 1000 nM | COCCN(C)c1cc(C(=O)Nc2cc(C(C)(C)C)on2)nc(N2CCOCC2)n1 [Compound 228, 6-[(2-Methoxy-ethyl)-methyl-amino]-2-morpholin-4-yl-pyrimidine-4-carboxylic acid (5-tert-butyl-isoxazol-3-yl)-amide] |
| ≥ 1000 nM | COCCN(C)c1cc(C(=O)Nc2ccc(C(C)C)c(C)c2)nc(N2CCOCC2)n1 [Compound 229, 6-[(2-Methoxy-ethyl)-methyl-amino]-2-morpholin-4-yl-pyrimidine-4-carboxylic acid (4-isopropyl-3-methyl-phenyl)-amide] |
| ≥ 1000 nM | COCCN(C)c1cc(C(=O)Nc2ccc(Br)c(C)c2)nc(N2CCOCC2)n1 [Compound 230, 6-[(2-Methoxy-ethyl)-methyl-amino]-2-morpholin-4-yl-pyrimidine-4-carboxylic acid (4-bromo-3-methyl-phenyl)-amide] |
| ≥ 1000 nM | COCCN(C)c1cc(C(=O)Nc2cccc(S(C)(=O)=O)c2)nc(N2CCOCC2)n1 [Compound 231, 6-[(2-Methoxy-ethyl)-methyl-amino]-2-morpholin-4-yl-pyrimidine-4-carboxylic acid (3-methanesulfonyl-phenyl)-amide] |
| ≥ 1000 nM | COCCN(C)c1cc(C(=O)Nc2cccc(C(=O)c3ccccc3)c2)nc(N2CCOCC2)n1 [Compound 232, 6-[(2-Methoxy-ethyl)-methyl-amino]-2-morpholin-4-yl-pyrimidine-4-carboxylic acid (3-benzoyl-phenyl)-amide] |
| ≥ 1000 nM | COCCN(C)c1cc(C(=O)NCCc2ccc(C)cc2)nc(N2CCOCC2)n1 [Compound 233, 6-[(2-Methoxy-ethyl)-methyl-amino]-2-morpholin-4-yl-pyrimidine-4-carboxylic acid (2-p-tolyl-ethyl)-amide] |
| ≥ 1000 nM | COCCN(C)c1cc(C(=O)Nc2ccc(N3CCOCC3)c(C(N)=O)c2)nc(N2CCOCC2)n1 [Compound 234, 6-[(2-Methoxy-ethyl)-methyl-amino]-2-morpholin-4-yl-pyrimidine-4-carboxylic acid (3-carbamoyl-4-morpholin-4-yl-phenyl)-amide] |
| ≥ 1000 nM | COCCN(C)c1cc(C(=O)Nc2cccc(-c3nn(C)cc3Br)c2)nc(N2CCOCC2)n1 [Compound 235, 6-[(2-Methoxy-ethyl)-methyl-amino]-2-morpholin-4-yl-pyrimidine-4-carboxylic acid [3-(4-bromo-1-methyl-1H-pyrazol-3-yl)-phenyl]-amide] |
| ≥ 1000 nM | COCCN(C)c1cc(C(=O)Nc2nnc(C(C)(C)C)s2)nc(N2CCOCC2)n1 [Compound 236, 6-[(2-Methoxy-ethyl)-methyl-amino]-2-morpholin-4-yl-pyrimidine-4-carboxylic acid (5-tert-butyl-[1,3,4]thiadiazol-2-yl)-amide] |
| ≥ 1000 nM | COCCN(C)c1cc(C(=O)Nc2cc(C)on2)nc(N2CCOCC2)n1 [Compound 237, 6-[(2-Methoxy-ethyl)-methyl-amino]-2-morpholin-4-yl-pyrimidine-4-carboxylic acid (5-methyl-isoxazol-3-yl)-amide] |
| ≥ 1000 nM | COCCN(C)c1cc(C(=O)Nc2cc(C)cc(C)n2)nc(N2CCOCC2)n1 [Compound 238, 6-[(2-Methoxy-ethyl)-methyl-amino]-2-morpholin-4-yl-pyrimidine-4-carboxylic acid (4,6-dimethyl-pyridin-2-yl)-amide] |
| ≥ 1000 nM | COCCN(C)c1cc(C(=O)Nc2cc(C)ns2)nc(N2CCOCC2)n1 [Compound 239, 6-[(2-Methoxy-ethyl)-methyl-amino]-2-morpholin-4-yl-pyrimidine-4-carboxylic acid (3-methyl-isothiazol-5-yl)-amide] |
| ≥ 1000 nM | COCCN(C)c1cc(C(=O)Nc2nc(C)cc(C)n2)nc(N2CCOCC2)n1 [Compound 240, 6-[(2-Methoxy-ethyl)-methyl-amino]-2-morpholin-4-yl-pyrimidine-4-carboxylic acid (4,6-dimethyl-pyrimidin-2-yl)-amide] |
